Measurements from US20260008787A1, “FUSED RING KRAS INHIBITORS FOR TREATING DISEASE” (BLOSSOMHILL THERAPEUTICS, INC., priority 2022, published 2026).

Experiments:
Assay type in all cases: cell-based
Details in all cases: 384-well, CellTiter-Glo 2.0
AGS (G12D) = assay: Cell proliferation assay (CellTiter-Glo, 72 hours), AGS
Procedure: (§1) Two thousand KRAS mutant cells per well were seeded in 384-well white plate and then treated with indicated compounds for 72 hours at 37° C. and 5% CO2. Cell proliferation was measured using CellTiter-Glo 2.0 luciferase-based ATP detection assay (Promega, Madison, WI) following the manufacturer's protocol. IC50 values were determined using Prism software (GraphPad Software, San Diego, CA).

GP2D (KRAS G12D) = assay: Cell proliferation assay (CellTiter-Glo, 72 hours), GP2D
Procedure: as §1

SW620 (KRAS G12V) = assay: Cell proliferation assay (CellTiter-Glo, 72 hours), SW620
Procedure: as §1

C#Cc1c(F)ccc2cc(O)cc(-c3nc4c5c(nc(OC[C@@]67CCCN6C/C(=C\F)C7)nc5c3F)N3CCCC[C@H]3CO4)c12 [Example 76, 5-ethynyl-6-fluoro-4-[(8aS)-4-fluoro-2-{[(2Z,7aS)-2-(fluoromethylidene)tetrahydro-1H-pyrrolizin-7a(5H)-yl]methoxy}-8,8a,9,10,11,12-hexahydro-7-oxa-1,3,6,12a-tetraazabenzo[4,5]cyclohepta[1,2,3-de]naphthalen-5-yl]naphthalen-2-ol]
IC50 (AGS (G12D)): 12.3 nM
IC50 (GP2D (KRAS G12D)): 3.35 nM
IC50 (SW620 (KRAS G12V)): 11.6 nM

C#Cc1c(F)ccc2cc(O)cc(-c3nc4c5c(nc(OC[C@@]67CCC[N+]6(C)C[C@H](F)C7)nc5c3F)N[C@@H](C)CO4)c12 (stereo partly drawn) [Example 77, (2R,7aS)-7a-({[(9S)-5-(8-ethynyl-7-fluoro-3-hydroxynaphthalen-1-yl)-4-fluoro-9-methyl-9,10-dihydro-8H-7-oxa-1,3,6,10-tetraazacyclohepta[1,2,3-de]naphthalen-2-yl]oxy}methyl)-2-fluoro-4-methylhexahydro-1H-pyrrolizin-4-ium]
IC50 (AGS (G12D); 72 h): > 3000 nM
IC50 (GP2D (KRAS G12D); GP2d, 72 h): 1350 nM
IC50 (SW620 (KRAS G12V); Homo sapiens, SW-620, 72 h): > 3000 nM

C#Cc1c(F)ccc2cc(O)cc(-c3nc4c5c(nc(OC[C@@]67CCCN6C[C@H](F)C7)nc5c3F)N(Cc3ccccc3)[C@@H](CO)CO4)c12 [Example 80, 4-[(9S)-10-benzyl-4-fluoro-2-{[(2R,7aS)-2-fluorotetrahydro-1H-pyrrolizin-7a(5H)-yl]methoxy}-9-(hydroxymethyl)-9,10-dihydro-8H-7-oxa-1,3,6,10-tetraazacyclohepta[1,2,3-de]naphthalen-5-yl]-5-ethynyl-6-fluoronaphthalen-2-ol]
IC50 (AGS (G12D); 72 h): > 3000 nM
IC50 (GP2D (KRAS G12D); GP2d, 72 h): > 3000 nM
IC50 (SW620 (KRAS G12V); Homo sapiens, SW-620, 72 h): > 3000 nM

C#Cc1c(F)ccc2cc(O)cc(-c3nc4c5c(nc(OC[C@@]67CCCN6C[C@H](F)C7)nc5c3F)N(Cc3ccccc3)[C@H](CO)CO4)c12 [Example 81, 4-[(9R)-10-benzyl-4-fluoro-2-{[(2R,7aS)-2-fluorotetrahydro-1H-pyrrolizin-7a(5H)-yl]methoxy}-9-(hydroxymethyl)-9,10-dihydro-8H-7-oxa-1,3,6,10-tetraazacyclohepta[1,2,3-de]naphthalen-5-yl]-5-ethynyl-6-fluoronaphthalen-2-ol]
IC50 (AGS (G12D); 72 h): > 3000 nM
IC50 (GP2D (KRAS G12D); GP2d, 72 h): > 3000 nM
IC50 (SW620 (KRAS G12V); Homo sapiens, SW-620, 72 h): > 3000 nM

C#Cc1c(F)ccc2cc(O)cc(-c3nc4c5c(nc(OC[C@@]67CCCN6C[C@H](F)C7)nc5c3F)N3C[C@@H](O)CC[C@H]3CO4)c12 [Example 86, (8aS,11S)-5-(8-ethynyl-7-fluoro-3-hydroxynaphthalen-1-yl)-4-fluoro-2-{[(2R,7aS)-2-fluorotetrahydro-1H-pyrrolizin-7a(5H)-yl]methoxy}-8,8a,9,10,11,12-hexahydro-7-oxa-1,3,6,12a-tetraazabenzo[4,5]cyclohepta[1,2,3-de]naphthalen-11-7ol]
IC50 (AGS (G12D); 72 h): 28.3 nM
IC50 (GP2D (KRAS G12D); GP2d, 72 h): 9.1 nM
IC50 (SW620 (KRAS G12V); Homo sapiens, SW-620, 72 h): 105 nM

C#Cc1c(F)ccc2cc(O)cc(-c3nc4c5c(nc(OC[C@@]67CCCN6C[C@H](F)C7)nc5c3F)N3C[C@H](O)CC[C@@H]3CO4)c12 [Example 87, (8aR,11R)-5-(8-ethynyl-7-fluoro-3-hydroxynaphthalen-1-yl)-4-fluoro-2-{[(2R,7aS)-2-fluorotetrahydro-1H-pyrrolizin-7a(5H)-yl]methoxy}-8,8a,9,10,11,12-hexahydro-7-oxa-1,3,6,12a-tetraazabenzo[4,5]cyclohepta[1,2,3-de]naphthalen-11-ol]
IC50 (AGS (G12D); 72 h): 132 nM
IC50 (GP2D (KRAS G12D); GP2d, 72 h): 64.5 nM
IC50 (SW620 (KRAS G12V); Homo sapiens, SW-620, 72 h): 686 nM

C#Cc1c(F)ccc2cc(O)cc(-c3nc4c5c(nc(OC[C@@]67CCCN6C[C@H](F)C7)nc5c3F)N[C@@H](CC)CO4)c12 [Example 90, 4-[(9S)-9-ethyl-4-fluoro-2-{[(2R,7aS)-2-fluorotetrahydro-1H-pyrrolizin-7a(5H)-yl]methoxy}-9,10-dihydro-8H-7-oxa-1,3,6,10-tetraazacyclohepta[1,2,3-de]naphthalen-5-yl]-5-ethynyl-6-fluoronaphthalen-2-ol]
IC50 (AGS (G12D); 72 h): 754 nM
IC50 (GP2D (KRAS G12D); GP2d, 72 h): 189 nM
IC50 (SW620 (KRAS G12V); Homo sapiens, SW-620, 72 h): 1950 nM

C#Cc1c(F)ccc2cc(O)cc(-c3nc4c5c(nc(OC[C@@]67CCCN6C[C@H](F)C7)nc5c3F)N(C)[C@H](CO)CO4)c12 [Example 91, 5-ethynyl-6-fluoro-4-[(9R)-4-fluoro-2-{[(2R,7aS)-2-fluorotetrahydro-1H-pyrrolizin-7a(5H)-yl]methoxy}-9-(hydroxymethyl)-10-methyl-9,10-dihydro-8H-7-oxa-1,3,6,10-tetraazacyclohepta[1,2,3-de]naphthalen-5-yl]naphthalen-2-ol]
IC50 (AGS (G12D); 72 h): 923 nM
IC50 (GP2D (KRAS G12D); GP2d, 72 h): 543 nM
IC50 (SW620 (KRAS G12V); Homo sapiens, SW-620, 72 h): > 3000 nM

CCc1c(F)ccc2cc(O)cc(-c3nc4c5c(nc(OC[C@@]67CCCN6C[C@H](F)C7)nc5c3F)N(C)[C@H](CO)CO4)c12 [Example 92, 5-ethyl-6-fluoro-4-[(9R)-4-fluoro-2-{[(2R,7aS)-2-fluorotetrahydro-1H-pyrrolizin-7a(5H)-yl]methoxy}-9-(hydroxymethyl)-10-methyl-9,10-dihydro-8H-7-oxa-1,3,6,10-tetraazacyclohepta[1,2,3-de]naphthalen-5-yl]naphthalen-2-ol]
IC50 (AGS (G12D); 72 h): 393 nM
IC50 (GP2D (KRAS G12D); GP2d, 72 h): 348 nM
IC50 (SW620 (KRAS G12V); Homo sapiens, SW-620, 72 h): 579 nM

C#Cc1c(F)ccc2cc(O)cc(-c3nc4c5c(nc(OC[C@@]67CCCN6C[C@H](F)C7)nc5c3F)N3C[C@@H](O)CC[C@@H]3CO4)c12 [Example 94, (8aR,11S)-5-(8-ethynyl-7-fluoro-3-hydroxynaphthalen-1-yl)-4-fluoro-2-{[(2R,7aS)-2-fluorotetrahydro-1H-pyrrolizin-7a(5H)-yl]methoxy}-8,8a,9,10,11,12-hexahydro-7-oxa-1,3,6,12a-tetraazabenzo[4,5]cyclohepta[1,2,3-de]naphthalen-11-ol]
IC50 (AGS (G12D); 72 h): > 3000 nM
IC50 (GP2D (KRAS G12D); GP2d, 72 h): 1100 nM
IC50 (SW620 (KRAS G12V); Homo sapiens, SW-620, 72 h): > 3000 nM

C#Cc1c(F)ccc2cc(O)cc(-c3nc4c5c(nc(OC[C@@]67CCCN6C[C@H](F)C7)nc5c3F)NC3(CC3)CO4)c12 [Example 95, 5-ethynyl-6-fluoro-4-(4′-fluoro-2′-{[(2R,7aS)-2-fluorotetrahydro-1H-pyrrolizin-7a(5H)-yl]methoxy}-8′H,10′H-spiro[cyclopropane-1,9′-[7]oxa[1,3,6,10]tetraazacyclohepta[1,2,3-de]naphthalen]-5′-yl)naphthalen-2-ol]
IC50 (AGS (G12D); 72 h): > 3000 nM
IC50 (GP2D (KRAS G12D); GP2d, 72 h): 993 nM
IC50 (SW620 (KRAS G12V); Homo sapiens, SW-620, 72 h): > 3000 nM

C#Cc1c(F)ccc2cc(O)cc(-c3nc4c5c(nc(OC[C@@]67CCCN6C[C@H](O)C7)nc5c3F)N3CCCC[C@H]3CO4)c12 [Example 97, (2R,7aS)-7a-({[(8aS)-5-(8-ethynyl-7-fluoro-3-hydroxynaphthalen-1-yl)-4-fluoro-8,8a,9,10,11,12-hexahydro-7-oxa-1,3,6,12a-tetraazabenzo[4,5]cyclohepta[1,2,3-de]naphthalen-2-yl]oxy}methyl)hexahydro-1H-pyrrolizin-2-ol]
IC50 (AGS (G12D); 72 h): 385 nM
IC50 (GP2D (KRAS G12D); GP2d, 72 h): 916 nM
IC50 (SW620 (KRAS G12V); Homo sapiens, SW-620, 72 h): 1180 nM

CCc1c(F)ccc2cc(O)cc(-c3nc4c5c(nc(OC[C@@]67CCCN6C[C@H](F)C7)nc5c3F)N[C@H](CO)CO4)c12 [Example 100, 5-ethyl-6-fluoro-4-[(9R)-4-fluoro-2-{[(2R,7aS)-2-fluorotetrahydro-1H-pyrrolizin-7a(5H)-yl]methoxy}-9-(hydroxymethyl)-9,10-dihydro-8H-7-oxa-1,3,6,10-tetraazacyclohepta[1,2,3-de]naphthalen-5-yl]naphthalen-2-ol]
IC50 (AGS (G12D); 72 h): > 3000 nM
IC50 (GP2D (KRAS G12D); GP2d, 72 h): > 3000 nM
IC50 (SW620 (KRAS G12V); Homo sapiens, SW-620, 72 h): > 3000 nM
